ChEMBL document CHEMBL6120946, “From Hit to Lead: Discovery of First-In-Class Furanone Glycoside D228 Derived from Chimonanthus salicifolius for the Treatment of Inflammatory Bowel Disease” (J Med Chem, 2024)
Activity calls are given as the source filed them. No cut-off for these calls is given here.

Key:
[1] = Cytotoxicity against mouse Splenocyte by MTT assay; assay type: toxicity, cell-based; settings: splenocytes
B-cell line = experiment: Immunosuppressive activity in mouse B-lymphocyte assessed as reduction in LPS-induced cell proliferation incubated for 48 hrs; assay type: functional, cell-based
[2] = Selectivity ratio of CC50 for cytotoxicity against mouse Splenocyte to IC50 for immunosuppressive activity in mouse B-lymphocyte; assay type: toxicity; settings: splenocytes (CC50) and B-lymphocytes (IC50)
[3] = Immunosuppressive activity in mouse T-lymphocyte assessed as reduction in concanavalin A-induced cell proliferation incubated for 48 hrs; assay type: functional, cell-based
[4] = Selectivity ratio of CC50 for cytotoxicity against mouse Splenocyte to IC50 for immunosuppressive activity in mouse T-lymphocyte; assay type: toxicity; settings: splenocytes (CC50) and T-lymphocytes (IC50)
Mus musculus [5] = experiment: Antiinflammatory activity in DSS-induced male C57BL/6 mouse model of inflammatory bowel disease assessed as reduction of bloody stool at 22.5 to 45 mg/kg/day, po via gavage measured upto 14 days; assay type: functional, organism-based; settings: dose 22.5-45 mg/kg/day, time <= 14.0 day
Mus musculus [6] = experiment: Antiinflammatory activity in DSS-induced male C57BL/6 mouse model of inflammatory bowel disease assessed as recovery from body weight loss at 40 mg/kg/day, po measured after 7 days; assay type: functional, organism-based; settings: time 7.0 day
Mus musculus [7] = experiment: Antiinflammatory activity in DSS-induced male C57BL/6 mouse model of inflammatory bowel disease assessed as recovery from body weight loss at 40 mg/kg/day, po measured after 7 days relative to control; assay type: functional; settings: time 7 day
Mus musculus [8] = experiment: Antiinflammatory activity in DSS-induced male C57BL/6 mouse model of inflammatory bowel disease assessed as recovery in colon length at 40 mg/kg/day, po measured after 7 days relative to control; assay type: functional; settings: time 7 day
Mus musculus [9] = experiment: Antiinflammatory activity in DSS-induced male C57BL/6 mouse model of inflammatory bowel disease assessed as restoration of colon length at 40 mg/kg/day, po via gavage measured after 14 days relative to control; assay type: functional; settings: time 14 day
Mus musculus [10] = experiment: Antiinflammatory activity in DSS-induced male C57BL/6 mouse model of inflammatory bowel disease assessed as decrease in p38 phosphorylation level at 50 to 100 microM/Kg by Western blot analysis; assay type: functional, organism-based; settings: dose 50-100 µM/Kg
Mus musculus [11] = experiment: Antiinflammatory activity in DSS-induced male C57BL/6 mouse model of inflammatory bowel disease assessed as downregulation of MyD88 expression at 50 to 100 microM/Kg by Western blot analysis; assay type: functional, organism-based; settings: dose 50-100 µM/Kg
[12] = Half life in male C57 mouse at 1 mg/kg, iv measured upto 24 hrs; assay type: ADME, organism-based; settings: in vivo
[13] = Apparent volume of distribution in male C57 mouse at 1 mg/kg, iv measured upto 24 hrs; assay type: ADME, organism-based; settings: in vivo, read-out: Vz
[14] = AUC last in male C57 mouse at 1 mg/kg, iv measured upto 24 hrs; assay type: ADME, organism-based; settings: in vivo
[15] = AUC infinity in male C57 mouse at 1 mg/kg, iv measured upto 24 hrs; assay type: ADME, organism-based; settings: in vivo
[16] = MRT last in male C57 mouse at 1 mg/kg, iv measured upto 24 hrs; assay type: ADME, organism-based; settings: in vivo
[17] = Clearance in male C57 mouse at 1 mg/kg, iv measured upto 24 hrs; assay type: ADME, organism-based; settings: in vivo
[18] = Cmax in male C57 mouse at 5 mg/kg, po measured upto 24 hrs; assay type: ADME, organism-based; settings: in vivo
[19] = Tmax in male C57 mouse at 5 mg/kg, po measured upto 24 hrs; assay type: ADME, organism-based; settings: in vivo
[20] = Half life in male C57 mouse at 5 mg/kg, po measured upto 24 hrs; assay type: ADME, organism-based; settings: in vivo
[21] = Apparent volume of distribution in male C57 mouse at 5 mg/kg, po measured upto 24 hrs; assay type: ADME, organism-based; settings: in vivo
[22] = AUC last in male C57 mouse at 5 mg/kg, po measured upto 24 hrs; assay type: ADME, organism-based; settings: in vivo
[23] = AUC infinity in male C57 mouse at 5 mg/kg, po measured upto 24 hrs; assay type: ADME, organism-based; settings: in vivo
[24] = MRT last in male C57 mouse at 5 mg/kg, po measured upto 24 hrs; assay type: ADME, organism-based; settings: in vivo
[25] = Clearance in male C57 mouse at 5 mg/kg, po measured upto 24 hrs; assay type: ADME, organism-based; settings: in vivo
[26] = Oral bioavailability in male C57 mouse at 5 mg/kg measured upto 24 hrs; assay type: ADME, organism-based; settings: in vivo
[27] = Genotoxicity in erythrocyte (unknown origin) by Erythrocyte micronucleus test; assay type: toxicity, cell-based
[28] = Acute toxicity in female Kunming mouse assessed as effect on liver 5 g/Kg, po measured after 5 weeks; assay type: organism-based; settings: in vivo, 5000 mg/kg, 840 h
[29] = Acute toxicity in female Kunming mouse assessed as effect on kidney 5 g/Kg, po measured after 5 weeks; assay type: organism-based; settings: in vivo, 5000 mg/kg, 840 h
[30] = Toxicity in male Kunming mouse assessed as effect on spleen at 100 to 500 mg/kg/day, po measured after 5 weeks by H and E staining based analysis; assay type: organism-based; settings: in vivo, 840 h, dose 100-500 mg/kg/day
[31] = Toxicity in male Kunming mouse assessed as effect on GLU level in serum at 100 to 500 mg/kg/day, po measured after 5 weeks; assay type: organism-based; settings: in vivo, 840 h, dose 100-500 mg/kg/day
[32] = Toxicity in male Kunming mouse assessed as effect on T-CHO level in serum at 100 to 500 mg/kg/day, po measured after 5 weeks; assay type: organism-based; settings: in vivo, 840 h, dose 100-500 mg/kg/day
[33] = Toxicity in female Kunming mouse assessed as effect on liver at 100 to 500 mg/kg/day, po measured after 5 weeks by H and E staining based analysis; assay type: organism-based; settings: in vivo, 840 h, dose 100-500 mg/kg/day
[34] = Toxicity in female Kunming mouse assessed as effect on TP level in serum at 100 to 500 mg/kg/day, po measured after 5 weeks; assay type: organism-based; settings: in vivo, 840 h, dose 100-500 mg/kg/day
[35] = Toxicity in female Kunming mouse assessed as effect on TBIL level in serum at 100 to 500 mg/kg/day, po measured after 5 weeks; assay type: organism-based; settings: in vivo, 840 h, dose 100-500 mg/kg/day
[36] = Toxicity in female Kunming mouse assessed as effect on K inorganic salt level in serum at 100 to 500 mg/kg/day, po measured after 5 weeks; assay type: organism-based; settings: in vivo, 840 h, dose 100-500 mg/kg/day
Mus musculus [37] = experiment: Antiinflammatory activity in DSS-induced male C57BL/6 mouse model of inflammatory bowel disease assessed as recovery from body weight loss at 40 mg/kg/day, ip measured after 14 days relative to control; assay type: functional; settings: time 14 day
Mus musculus [38] = experiment: Antiinflammatory activity in DSS-induced male C57BL/6 mouse model of inflammatory bowel disease assessed as increase in colon length at 30 mg/kg/day, po via gavage measured upto 14 days relative to control; assay type: functional; settings: time <= 14 day
Mus musculus [39] = experiment: Antiinflammatory activity in DSS-induced male C57BL/6 mouse model of inflammatory bowel disease assessed as downregulation of TRAF6 expression at 50 to 200 microM/Kg by Western blot analysis; assay type: functional, organism-based; settings: dose 50-200 µM/Kg
Mus musculus [40] = experiment: Antiinflammatory activity in DSS-induced male C57BL/6 mouse model assessed as inhibition of IL-6 level in colon at 50 to 200 microM/Kg; assay type: functional, organism-based; settings: dose 50-200 µM/Kg
Mus musculus [41] = experiment: Antiinflammatory activity in DSS-induced male C57BL/6 mouse model of inflammatory bowel disease assessed as amelioration of crypts disruption at 50 to 200 microM/Kg by H and E staining based analysis; assay type: functional, organism-based; settings: dose 50-200 µM/Kg
Mus musculus [42] = experiment: Antiinflammatory activity in DSS-induced male C57BL/6 mouse model of inflammatory bowel disease assessed as inhibition of MPO expression at 50 to 200 microM/Kg, po by immunohistochemical analysis; assay type: functional, organism-based; settings: dose 50-200 µM/Kg

| Compound | CC50 [1] [µM] | IC50 (B-cell line) [µM] | selectivity ratio [2] | IC50 [3] [µM] | selectivity ratio [4] | Activity (Mus musculus [6]) | Activity (Mus musculus [7]) [%] | Activity (Mus musculus [8]) [%] | half-life [12] [min] | Vd [13] [L/kg] | AUC(0-t) at 24 h [14] [ng·h/mL] | AUC(0-inf) [15] [ng·h/mL] | MRT last at 24 h [16] [min] | clearance [17] [mL/min/kg] | Cmax [18] [ng/mL] | Tmax [19] [min] | Vz [21] [L/kg] | AUC(0-t) at 24 h [22] [ng·h/mL] | AUC(0-inf) [23] [ng·h/mL] | MRT last at 24 h [24] [min] | further results |
| --- | --- | --- | --- | --- | --- | --- | --- | --- | --- | --- | --- | --- | --- | --- | --- | --- | --- | --- | --- | --- | --- |
| CC(=O)OC[C@H]1O[C@@H](OC2=C(C)OC(=C(C)C)C2=O)[C@H](OC(C)=O)[C@@H](OC(C)=O)[C@@H]1OC(C)=O | 60 | 3.15 | 22 | 42.9 | 1.44 | Active | 27 | 33.3 | 16.2 | 9.25 | 32.3 | 44 | 10.2 | 397 | 48.4 | 19.8 | 137.3 | 58.3 | 93.6 | 63.6 | Activity (Mus musculus [5]): Active; Activity (Mus musculus [9]): 28.6%; Activity (Mus musculus [10]): Active; Activity (Mus musculus [11]): Active; half-life ([20]; male, C57, mouse): 115 min; CL/F ([25]; male, C57, mouse): 915 mL/min/kg; bioavailability [26]: 36.1%; Activity [27]: Non-toxic; Activity [28]: Non-toxic; Activity [29]: Non-toxic; Activity [30]: Non-toxic; Activity [31]: Non-toxic; Activity [32]: Non-toxic; Activity [33]: Non-toxic; Activity [34]: Non-toxic; Activity [35]: Non-toxic; Activity [36]: Non-toxic |
| CC(C)=C1OC(C)=C(O[C@@H]2O[C@H](CO)[C@@H](O)[C@H](O)[C@H]2O)C1=O | 149 | 85.8 | 1.9 | 308 | 0.63 | Active | 45.6 | 50.5 | 27 | 1.09 | 592 | 594 | 19.8 | 28.5 | 284 | 15 | 29.6 | 177 | 180 | 254 | Activity (Mus musculus [37]): 56.2%; Activity (Mus musculus [38]): 65.6%; Activity (Mus musculus [39]): Active; Activity (Mus musculus [40]): Active; Activity (Mus musculus [41]): Active; Activity (Mus musculus [42]): Active; t1/2 ([20]; mouse, po, 5 mg/kg, 24 h): 332 min; CL ([25]; mouse, po, 5 mg/kg, 24 h): 475.7 mL/min/kg; bioavailability [26]: 6% |
